From the supplement of paper PMC10627819

Tests used:
Assay in all cases: fitness (endpoint OD595 vs no drug) (fraction); higher = more growth
S. aureus Newman = tested on: S. aureus Newman
Procedure, shortened: (§1)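 At 37 °C, bacteria in TSB, LB Lennox or CY were grown in 384-well plates from a starting OD595 of 0.01. OD595 was measured every 30 min for 14 h, with the first reading used as background. Fitness is the optical density at the switch to stationary phase as a fraction of the robust mean of no-drug control wells, capped at 1.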

S. pneumoniae D39V = tested on: S. pneumoniae D39V
Procedure, shortened: as §1

S. aureus DSM 20231 = tested on: S. aureus DSM 20231
Procedure, shortened: as §1
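Further: OD595 on entry to stationary phase over no-drug wells; at most 1.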

COc1cccc2c1C(=O)c1c(O)c3c(c(O)c1C2=O)C[C@@](O)(C(=O)CO)C[C@@H]3O[C@H]1C[C@H](N)[C@H](O)[C@H](C)O1 [Doxorubicin] + CO/N=C(\C(=O)N[C@@H]1C(=O)N2C(C(=O)[O-])=C(C[N+]3(C)CCCC3)CS[C@H]12)c1csc(N)n1 [Cefepime]
fitness
Settings	first compound 0.25 µg/mL	first compound 0.5 µg/mL	first compound 0.625 µg/mL	first compound 1 µg/mL	first compound 1.25 µg/mL	first compound 2.5 µg/mL
S. aureus DSM 20231, partner 0.125 µg/mL	–	–	0.861	–	0.828	0.721
S. aureus DSM 20231, partner 0.25 µg/mL	–	–	0.826	–	0.814	0.656
S. aureus DSM 20231, partner 0.5 µg/mL	–	–	0.741	–	0.71	0.62
S. aureus Newman, partner 0.125 µg/mL	–	–	0.783	–	0.773	0.716
S. aureus Newman, partner 0.25 µg/mL	–	–	0.762	–	0.744	0.696
S. aureus Newman, partner 0.5 µg/mL	–	–	0.659	–	0.732	0.683
S. pneumoniae D39V, partner 0.007 µg/mL	0.937	0.949	–	0.957	–	–
S. pneumoniae D39V, partner 0.0078 µg/mL	≥ 1	≥ 1	–	0.938	–	–
S. pneumoniae D39V, partner 0.014 µg/mL	0.912	0.935	–	0.942	–	–
S. pneumoniae D39V, partner 0.0155 µg/mL	0.974	0.994	–	0.917	–	–
S. pneumoniae D39V, partner 0.028 µg/mL	0.783	0.846	–	0.825	–	–

COc1cccc2c1C(=O)c1c(O)c3c(c(O)c1C2=O)C[C@@](O)(C(=O)CO)C[C@@H]3O[C@H]1C[C@H](N)[C@H](O)[C@H](C)O1 [Doxorubicin] + CO[C@@]12[C@H](COC(N)=O)C3=C(C(=O)C(C)=C(N)C3=O)N1C[C@@H]1N[C@@H]12 [Mitomycin C]
fitness
Settings	first compound 0.25 µg/mL	first compound 0.5 µg/mL	first compound 0.625 µg/mL	first compound 1 µg/mL	first compound 1.25 µg/mL	first compound 2.5 µg/mL
S. aureus DSM 20231, partner 0.0156 µg/mL	–	–	0.699	–	0.697	0.668
S. aureus DSM 20231, partner 0.0312 µg/mL	–	–	0.659	–	0.641	0.61
S. aureus DSM 20231, partner 0.0625 µg/mL	–	–	0.52	–	0.496	0.473
S. aureus Newman, partner 0.0156 µg/mL	–	–	0.669	–	0.692	0.672
S. aureus Newman, partner 0.0312 µg/mL	–	–	0.63	–	0.699	0.599
S. aureus Newman, partner 0.0625 µg/mL	–	–	0.531	–	0.507	0.408
S. pneumoniae D39V, partner 0.001075 µg/mL	0.834	0.842	–	0.81	–	–
S. pneumoniae D39V, partner 0.002 µg/mL	0.836	0.822	–	0.696	–	–
S. pneumoniae D39V, partner 0.00215 µg/mL	0.838	0.848	–	0.783	–	–
S. pneumoniae D39V, partner 0.004 µg/mL	0.707	0.664	–	0.632	–	–
S. pneumoniae D39V, partner 0.0043 µg/mL	0.681	0.671	–	0.58	–	–
S. pneumoniae D39V, partner 0.008 µg/mL	0.458	0.435	–	0.404	–	–

C[C@@H]1O[C@@H]1P(=O)(O)O [Fosfomycin] + CO[C@@]12[C@H](COC(N)=O)C3=C(C(=O)C(C)=C(N)C3=O)N1C[C@@H]1N[C@@H]12 [Mitomycin C]
fitness
Settings	first compound 0.781 µg/mL	first compound 1.25 µg/mL	first compound 1.562 µg/mL	first compound 2.5 µg/mL	first compound 3.124 µg/mL	first compound 5 µg/mL
S. aureus DSM 20231, partner 0.0156 µg/mL	0.607	–	0.494	–	0.43	–
S. aureus DSM 20231, partner 0.0312 µg/mL	0.57	–	0.497	–	0.318	–
S. aureus DSM 20231, partner 0.0625 µg/mL	0.49	–	0.35	–	0.165	–
S. aureus Newman, partner 0.0156 µg/mL	0.576	–	0.452	–	0.124	–
S. aureus Newman, partner 0.0312 µg/mL	0.543	–	0.363	–	0.0839	–
S. aureus Newman, partner 0.0625 µg/mL	0.373	–	0.114	–	0.0142	–
S. pneumoniae D39V, partner 0.001075 µg/mL	–	0.903	–	0.869	–	0.772
S. pneumoniae D39V, partner 0.002 µg/mL	–	0.858	–	0.812	–	0.694
S. pneumoniae D39V, partner 0.00215 µg/mL	–	0.843	–	0.837	–	0.733
S. pneumoniae D39V, partner 0.004 µg/mL	–	0.793	–	0.77	–	0.617
S. pneumoniae D39V, partner 0.0043 µg/mL	–	0.748	–	0.734	–	0.652
S. pneumoniae D39V, partner 0.008 µg/mL	–	0.65	–	0.648	–	0.574
